Data: patent publication US20020131996A1, “Methods and compositions for blocking microbial adherence to eukaryotic cells” (priority 2001, published 2002)

Legend:
Type in all cases: in vivo, human
bacterial vaginosis = test: Amelioration of bacterial vaginosis with isoleucine powder applied in the vagina
Method: In this example isoleucine was administered locally to the vagina to treat the symptoms of bacterial vaginosis. By inhibiting the adherence of bacteria to the wall of the vagina, microbial growth, inflammation, and associated signs of malodorous discharge and symptoms such as pruritis can be treated. A person, with a normal menstrual cycle and in excellent health, experienced vaginal irritation and malodorous discharge associated with their cycle, generally beginning several days prior to the onset of their period. Isoleucine was self-administered as a powder locally within the vaginal cavity digitally, twice a day. Within 2 days symptoms of vaginosis disappeared. Isoleucine therapy was continued for several days following termination of menstrual discharge, and then stopped. […] Isoleucine was again administered during the following months, cycled as described initially.

[1] = test system: irritable bowel syndrome (IBS); test: Amelioration of irritable bowel syndrome with isoleucine in yogurt
Method: In this example isoleucine was administered to individuals who experienced irritable bowel syndrome (IBS). IBS is a loosely defined condition associated with bowel discomfort including abdominal bloating, nausea, pain, and a sense of incomplete bowel movements. The etiology underlying IBS is unknown. It is our hypothesis that IBS results from adherence of certain “pathogenic” commensal organisms to the epithelial lining of certain segments of the GI tract, resulting in disturbance of normal host-bacteria relationships. […] Two women, each in their mid-50's, presented with a history of IBS of over 20 years, in each case. In each, IBS was characterized by a sense of bloating experienced after eating cooked or raw vegetables, fruits, and meat. Each individual experienced urgency to move her bowels several times a day to an extent that often awakened the individuals from sleep. Bloating was accompanied by abdominal discomfort, described as mild cramps. Individuals felt “gassy” most of the day. Each individual was given isoleucine, 1 tsp, twice a day, each dose mixed in ½cup of yogurt. The yogurt was included to promote reinoculation of the GI tract with probiotic “good” bacteria. In each case, it was known from previous experience that yogurt itself had little effect on the IBS experienced by these individuals. Within 2 days of isoleucine administration, bloating, urgency to defecate, and gassiness had disappeared. Both individuals described the state of their bowel function as “normal”, for the first time in 20 years. […] Each was then withdrawn from isoleucine, and provided yogurt unsupplemented with isoleucine. Within about 2 days both women recorded a reappearance of the former symptoms of IBS.

[2] = test system: infectious diarrhea (diarrheal agent not known); test: Treatment of infectious diarrhea with oral isoleucine solution
Method: In this example isoleucine was administered to treat infectious diarrhea. In this example three individuals were naturally innoculated by a common agent. The nature of the diarrheal agent is not known. The duration of diarrhea was consistent with an infectious etiology. Isoleucine was utilized based on the hypothesis that reduction in microbial adherence would likely limit the continued re-infection of the gut wall by the agent, and/or prevent attachment of opportunistic commensal organisms.
Three members of a family traveling in the Middle East (MZ, BZ, JZ) contracted watery diarrhea, associated with food intolerance, following a meal they shared at a restaurant. Each individual had been in excellent health without prior history of GI complaints. All were unmedicated, including aspirin or antihistamines. […] Diarrhea was watery, without gross blood, minimal mucous, slight fever with chills, no nausea, and persistence of hunger. Peristalsis was vigorous and increased by ingestion of food. Each individual was placed on a diet restricted to clear liquids (juices and soda), digestible carbohydrates (bread, rice, candy). No medications were administered.
Six days after ingestion of the diarrheal agent, one individual was begun on oral isoleucine (ILE) therapy, while the other two continued on restricted diets. ILE (#E-2025 Bachem, lot 511191) was dissolved in distilled water to 0.001%. One glass of ILE solution (about 250 ml) was consumed every several hours. A total of about 4 liters was consumed over {fraction (3 1/2)}days. A reduction in stool frequency was noted within 12 hours of initiation of ILE therapy.

[3] = test system: bacteria adherent to gingival epithelial cells; test: Microbial adherence to gingival epithelial cells in volunteers with low grade gingivitis (Giemsa-stained gingival scrapings)
Text: In this example isoleucine was applied as a pure crystalline powder directly to the gums. The individuals were normal human volunteers. Each individual had clinically evident low grade gingivitis, as determined by the puffiness of the gingival margin and a history of some bleeding during normal dental brushing. Oral health care comprised twice daily flossing and dental brushing with a non-medicated toothpaste. No oral antiseptic was used. The individuals were not taking antibiotics. Isoleucine was applied by application of powder on the fingertip to the outer and inner gum margins of the upper and lower jaws. The entirety of the gingival surface was covered manually, twice daily. The AM application was performed following breakfast, immediately after brushing. The PM application was conducted prior to retiring for sleep.
Gingival surface was gently scrapped with the side of a rectangular glass cover slip and the material described was applied to a glass microscope slide and air-dried. The slide was stained in concentrated Giemsa stain for 1 min, then destained in water for 5 min. The slide was then air-dried and mounted with a cover slip cemented with Permount. Slides were examined by light microscopy at 100×and 400×magnification. Under these staining conditions bacteria were clearly visualized as dark blue particles against the pale gray epithelial cells.
Gingival scrapings were taken in the morning prior to normal oral care and prior to eating. Prior to scraping, the subject rinsed the mouth with a cup of water to wash free particulate matter, unattached cells, and bacteria.
Scrapings were taken 3 days and 1 day prior to isoleucine administration and 1, 3, 5, and 7 days during isoleucine application. […] The bacteria adherent were represented by several different species, distinguished by morphology. […] At least 200 bacteria were counted on the average on each cell.

[4] = Day 1 of isoleucine powder applied to gums twice daily
[5] = Day 3 of isoleucine powder applied to gums twice daily
[6] = Day 7 of isoleucine powder applied to gums twice daily

CC[C@H](C)[C@H](N)C(=O)O [isoleucine]
Symptoms following cessation of isoleucine administration (bacterial vaginosis; after cessation): remained symptom free
Outcome of chronic vaginosis based on symptoms and signs (bacterial vaginosis; cycled administration during following months): effectively cured
Time to disappearance of symptoms of vaginosis (bacterial vaginosis; one person, powder in the vaginal cavity twice a day): ≤ 2 days
Response during maintenance on isoleucine ([1]; maintained for 1 month): consistent response
State of bowel function as described by the individuals ([1]; two women on isoleucine in yogurt): normal
Time to disappearance of bloating, urgency to defecate, and gassiness ([1]; two women, isoleucine 1 tsp twice a day in 1/2 cup yogurt): ≤ 2 days
Time to reappearance of former IBS symptoms after withdrawal from isoleucine ([1]; yogurt unsupplemented with isoleucine): about 2 days
Shortening of the duration of diarrhea ([2]; MZ versus two untreated family members (BZ, JZ)): approximately three
Stools passed on the 3rd day of ILE therapy ([2]; individual, 3rd day): no stools were passed
Food tolerance ([2]; individual, by the 3rd day): cheese and chicken tolerated
Stool by day 4 following ILE treatment ([2]; individual, day 4): a normal stool was passed
Time to reduction in stool frequency after initiation of ILE therapy ([2]; one individual, 0.001% ILE in distilled water, oral, begun six days after ingestion of agent): ≤ 12 h
Change in number of epithelial cells covered with a dense coat of bacteria ([3]; Day 1 following initiation of isoleucine application): little change
Gingival epithelial cells with 0 Bacteria [3, 4]: 0 % cells
Gingival epithelial cells with 1-10 Bacteria [3, 4]: 10 % cells
Gingival epithelial cells with 10-100 Bacteria [3, 4]: 10 % cells
Gingival epithelial cells with Contiguous lawn of bacteria [3, 4]: 80 % cells
Adherent bacteria in gingival smears ([3]; Day 3): dramatic reduction
Microcolonies (contiguous groupings of greater than 4 organisms) on cells ([3]; Day 3): Few
Neutrophils in gingival smear (sign of inflammation) ([3]; Day 3): No neutrophils were evident
Total adherent bacteria per cell (most cells) ([3]; Day 3): < 100
Cells fully covered with bacteria, of 100 cells examined ([3]; Day 3, of 100 cells examined): 40
Gingival epithelial cells with 0 Bacteria [3, 5]: 15 % cells
Gingival epithelial cells with 1-10 Bacteria [3, 5]: 15 % cells
Gingival epithelial cells with 10-100 Bacteria [3, 5]: 30 % cells
Gingival epithelial cells with Contiguous lawn of bacteria [3, 5]: 40 % cells
Breath as described by an examiner in the AM prior to oral hygiene ([3]; Day 7): free of odor
Gingival epithelial cells with 0 Bacteria [3, 6]: 80 % cells
Gingival epithelial cells with 1-10 Bacteria [3, 6]: 15 % cells
Gingival epithelial cells with 10-100 Bacteria [3, 6]: 0 % cells
Gingival epithelial cells with Contiguous lawn of bacteria (fully covered) [3, 6]: 5 % cells
